Source: PubChem BioAssay AID248 (DTP/NCI, 2004)
Where “and” joins values, the source holds several entries; their conditions need not be identical. Identical values can stand only once. Toxic doses and inconclusive results are not listed. Rule as the data show it: active = T/C of 150% or more; inactive = T/C below 125%.

Tested on: L1210 leukemia ip in BDF1 mice, survival T/C
Assay: NCI In Vivo Anticancer Drug Screen. Data for tumor model L1210 Leukemia (intraperitoneal) in B6D2F1 (BDF1) mice
Conditions: endpoint: mean survival time, higher = longer survival
Summary of the method: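 Each compound was tested against a transplantable tumor grown in mice. The endpoint was survival, with treated animals benchmarked against vehicle controls as a simple ratio.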

[1] = dose: 100.0 mg/kg/injection, schedule: Q01DX009 (ip), vehicle: saline with Tween-80
[2] = dose: 200.0 mg/kg/injection, schedule: Q01DX009 (ip), vehicle: saline with Tween-80
[3] = dose: 400.0 mg/kg/injection, schedule: Q01DX009 (ip), vehicle: saline with Tween-80
[4] = dose: 100.0 mg/kg/injection, schedule: Q01DX009 (ip), vehicle: Klucel (hydroxypropylcellulose) (HPC)
[5] = dose: 100.0 mg/kg/injection, schedule: Q04DX002 (ip), vehicle: Klucel (hydroxypropylcellulose) (HPC)
[6] = dose: 200.0 mg/kg/injection, schedule: Q01DX009 (ip), vehicle: Klucel (hydroxypropylcellulose) (HPC)
[7] = dose: 200.0 mg/kg/injection, schedule: Q04DX002 (ip), vehicle: Klucel (hydroxypropylcellulose) (HPC)
[8] = dose: 400.0 mg/kg/injection, schedule: Q01DX009 (ip), vehicle: Klucel (hydroxypropylcellulose) (HPC)
[9] = dose: 400.0 mg/kg/injection, schedule: Q04DX002 (ip), vehicle: Klucel (hydroxypropylcellulose) (HPC)
[10] = dose: 100.0 mg/kg/injection, schedule: Q01DX001 (ip), vehicle: saline
[11] = dose: 200.0 mg/kg/injection, schedule: Q01DX001 (ip), vehicle: saline
[12] = dose: 400.0 mg/kg/injection, schedule: Q01DX001 (ip), vehicle: saline
[13] = dose: 100.0 mg/kg/injection, schedule: Q04DX002 (ip), vehicle: saline with Tween-80
[14] = dose: 200.0 mg/kg/injection, schedule: Q04DX002 (ip), vehicle: saline with Tween-80
[15] = dose: 400.0 mg/kg/injection, schedule: Q04DX002 (ip), vehicle: saline with Tween-80
[16] = dose: 100.0 mg/kg/injection, schedule: Q04DX003 (ip), vehicle: Klucel (hydroxypropylcellulose) (HPC)
[17] = dose: 200.0 mg/kg/injection, schedule: Q04DX003 (ip), vehicle: Klucel (hydroxypropylcellulose) (HPC)
[18] = dose: 400.0 mg/kg/injection, schedule: Q04DX003 (ip), vehicle: Klucel (hydroxypropylcellulose) (HPC)
[19] = dose: 100.0 mg/kg/injection, schedule: Q04DX003 (ip), vehicle: saline with Tween-80

Measured: T/C

CC1C2C=CC1C(c1c3ccc(=O)cc-3oc3cc(O)ccc13)C2C(=O)O (stereo not drawn)
inactive: [1] 98 % of control | [2] 104 % of control | [3] 104 % of control

COc1cc2oc(C)c(C)c2cc1/C=C\[N+](=O)[O-]
inactive: dose: 50.0 mg/kg/injection, schedule: Q04DX002 (ip), vehicle: Klucel (hydroxypropylcellulose) (HPC) 96 % of control | [4] 93 % of control | [5] 93 % of control | [6] 98 % of control | [7] 96 % of control | [8] 100 % of control

CCOC(=O)c1ccc(N2C(=O)CC(Sc3ccccc3N)C2=O)cc1 (stereo not drawn)
inactive: dose: 100.0 mg/kg/injection, schedule: Q01DX005 (ip), vehicle: Klucel (hydroxypropylcellulose) (HPC) 97 % of control | [5] 103 % of control | dose: 200.0 mg/kg/injection, schedule: Q01DX005 (ip), vehicle: Klucel (hydroxypropylcellulose) (HPC) 102 % of control | [7] 103 % of control | dose: 400.0 mg/kg/injection, schedule: Q01DX005 (ip), vehicle: Klucel (hydroxypropylcellulose) (HPC) 91 % of control | [9] 113 % of control

Cc1ccc2[nH]c(C)c(C3=CC(=O)c4ccccc4C3=O)c2c1
inactive: dose: 100.0 mg/kg/injection, schedule: Q01DX001 (ip), vehicle: other 97 % of control | dose: 200.0 mg/kg/injection, schedule: Q01DX001 (ip), vehicle: other 92 % of control

O=C[CH2][Hg][Cl]
inactive: dose: 0.78 mg/kg/injection, schedule: Q01DX009 (ip), vehicle: saline with Tween-80 96 % of control | dose: 1.56 mg/kg/injection, schedule: Q01DX009 (ip), vehicle: saline with Tween-80 96 % of control | dose: 3.13 mg/kg/injection, schedule: Q01DX009 (ip), vehicle: saline with Tween-80 93 % of control

COC1OCC2OC(C)(C)OC2C1OS(C)(=O)=O (stereo not drawn)
inactive: [10] 107 % of control | [11] 112 % of control | [12] 97 % of control

O=C1c2cscc2C(O)c2c(Cl)sc(Cl)c21 (stereo not drawn)
inactive: [13] 101 % of control | [14] 97 % of control | [15] 89 % of control

Fc1ccc([P+]2(c3ccc(F)cc3)C=C(c3ccccc3)[P+](c3ccc(F)cc3)(c3ccc(F)cc3)C=C2c2ccccc2)cc1
inactive: dose: 12.5 mg/kg/injection, schedule: Q01DX001 (ip), vehicle: saline with Tween-80 100 % of control | dose: 25.0 mg/kg/injection, schedule: Q01DX001 (ip), vehicle: saline with Tween-80 98 % of control | dose: 50.0 mg/kg/injection, schedule: Q01DX001 (ip), vehicle: saline with Tween-80 100 % of control

COC(=O)c1nn2c(=O)c3cccc4cccc(c43)c2c1C(=O)OC
inactive: [4] 95 % of control | [6] 98 % of control | [8] 100 % of control

C1=C2CCCCC2OC1 (stereo not drawn)
inactive: dose: 75.0 mg/kg/injection, schedule: Q01DX001 (ip), vehicle: carboxymethylcellulose (CMC) 97 % of control | dose: 150.0 mg/kg/injection, schedule: Q01DX001 (ip), vehicle: carboxymethylcellulose (CMC) 98 % of control

CCC(CO)Nc1nc2ccc(Cl)cc2c2ccccc12 (stereo not drawn)
inactive: [4] 104 % of control | [16] 102 % of control | [6] 90 % of control | [17] 111 % of control | [8] 103 % of control | [18] 107 % of control

O=c1[nH]c(=O)n(Cc2ccccc2)cc1Cc1ccccc1
inactive: [19] 106 % of control | dose: 200.0 mg/kg/injection, schedule: Q04DX003 (ip), vehicle: saline with Tween-80 98 % of control | dose: 400.0 mg/kg/injection, schedule: Q04DX003 (ip), vehicle: saline with Tween-80 101 % of control

Clc1ccc(-c2ncc3cnccn23)cc1Cl
inactive: dose: 25.0 mg/kg/injection, schedule: Q01DX009 (ip), vehicle: saline with Tween-80 92 % of control | dose: 25.0 mg/kg/injection, schedule: Q04DX003 (ip), vehicle: saline with Tween-80 96 % of control | dose: 50.0 mg/kg/injection, schedule: Q01DX009 (ip), vehicle: saline with Tween-80 96 % of control | dose: 50.0 mg/kg/injection, schedule: Q04DX003 (ip), vehicle: saline with Tween-80 103 % of control | [19] 94 % of control and 96 % of control

Cc1nc(-c2ccccc2)[nH]c(=O)c1CC(O)c1ccccc1 (stereo not drawn)
inactive: [16] 86 % of control | [17] 92 % of control | [18] 87 % of control

N#Cc1ccc(N=S=O)cc1
inactive: [13] 105 % of control | [14] 112 % of control

Cc1c(-c2ccccc2)sc(/N=C/c2ccc(Cl)c(Cl)c2)c1C#N
inactive: [1] 103 % of control and 104 % of control | [13] 96 % of control and 101 % of control | [2] 103 % of control and 108 % of control | [14] 97 % of control and 104 % of control | [3] 93 % of control and 97 % of control | [15] 104 % of control and 115 % of control

O=C(O)c1cccc(C#Cc2ccccc2)c1
inactive: dose: 100.0 mg/kg/injection, schedule: Q01DX001 (ip), vehicle: Klucel (hydroxypropylcellulose) (HPC) 97 % of control | dose: 200.0 mg/kg/injection, schedule: Q01DX001 (ip), vehicle: Klucel (hydroxypropylcellulose) (HPC) 103 % of control

Nc1ccc(S(=O)(=O)Nc2ncccn2)cc1
inactive: [10] 96 % of control | [5] 103 % of control | [11] 97 % of control | [7] 92 % of control | [12] 103 % of control | [9] 103 % of control

Cc1c(C)c2ccccc2[nH]c1=O
inactive: dose: 100.0 mg/kg/injection, schedule: Q01DX001 (ip), vehicle: carboxymethylcellulose (CMC) 88 % of control | [10] 100 % of control | dose: 200.0 mg/kg/injection, schedule: Q01DX001 (ip), vehicle: carboxymethylcellulose (CMC) 88 % of control | [11] 95 % of control | dose: 400.0 mg/kg/injection, schedule: Q01DX001 (ip), vehicle: carboxymethylcellulose (CMC) 96 % of control | [12] 95 % of control

Clc1ccc(CSc2ncc(Br)c(N3CC3)n2)cc1
inactive: dose: 100.0 mg/kg/injection, schedule: Q01DX Z (ip), vehicle: methylcellulose (MC) 93 % of control | dose: 200.0 mg/kg/injection, schedule: Q01DX Z (ip), vehicle: methylcellulose (MC) 88 % of control

C1=C(c2ccccc2)N(C2CCCCCCC2)C(c2ccccc2)=CN1Cc1ccccc1
inactive: [5] 103 % of control | [7] 103 % of control | [9] 100 % of control

[O-][n+]1c2ccc(Cl)cc2nc2ccc(Cl)cc21
inactive: dose: 25.0 mg/kg/injection, schedule: Q04DX003 (ip), vehicle: Klucel (hydroxypropylcellulose) (HPC) 95 % of control | dose: 50.0 mg/kg/injection, schedule: Q04DX003 (ip), vehicle: Klucel (hydroxypropylcellulose) (HPC) 93 % of control | [16] 92 % of control and 88 % of control

CCOc1ccccc1N1C(=O)C=CC1=O
inactive: dose: 12.5 mg/kg/injection, schedule: Q04DX002 (ip), vehicle: saline with Tween-80 96 % of control | dose: 25.0 mg/kg/injection, schedule: Q04DX002 (ip), vehicle: saline with Tween-80 109 % of control

CCCCC(=O)N/N=C\c1cccc(OCc2ccccc2)c1
inactive: [10] 107 % of control | [11] 102 % of control | [12] 109 % of control

CC(=O)OC1CCC2(C)C(C)CC3C(=O)OC32C1 (stereo not drawn)
inactive: dose: 100.0 mg/kg/injection, schedule: Q04DX003 (ip), vehicle: acetone 87 % of control | dose: 200.0 mg/kg/injection, schedule: Q04DX003 (ip), vehicle: acetone 90 % of control
